Experimental data as given in patent publication US20180362449A1, “THE EXOCYST AS A NOVEL DRUG TARGET OF ENDOSIDIN2 AND APPLICATION AS A THERAPEUTIC” (The Regents of the University of California, priority 2015, published 2018).
Entries after “also recorded” stand apart in the source; their conditions may differ. Each block holds one molecule with its values, some of them ahead of it.

How the values were obtained:
PIN2 localization = PIN2 localization in root cells of PIN2::PIN2:GFP seedlings; settings: for induction of PIN2 agglomerations / PIN2 localization: 40 μM, 2 hours
EXO70A1 = target: T1, EXO70A1 (Arabidopsis thaliana, UniProt Q9LZD3); type: binding; settings: in comparison to Bio-680 matrix and biotin controls
T1 construct: protein extracts from 16 days old seedlings grown from normal 0.5×MS agar media; from tissue; host or cells: Arabidopsis seedlings (16 days old), 16,000×g supernatant
T1 sequence (Q9LZD3 1-638): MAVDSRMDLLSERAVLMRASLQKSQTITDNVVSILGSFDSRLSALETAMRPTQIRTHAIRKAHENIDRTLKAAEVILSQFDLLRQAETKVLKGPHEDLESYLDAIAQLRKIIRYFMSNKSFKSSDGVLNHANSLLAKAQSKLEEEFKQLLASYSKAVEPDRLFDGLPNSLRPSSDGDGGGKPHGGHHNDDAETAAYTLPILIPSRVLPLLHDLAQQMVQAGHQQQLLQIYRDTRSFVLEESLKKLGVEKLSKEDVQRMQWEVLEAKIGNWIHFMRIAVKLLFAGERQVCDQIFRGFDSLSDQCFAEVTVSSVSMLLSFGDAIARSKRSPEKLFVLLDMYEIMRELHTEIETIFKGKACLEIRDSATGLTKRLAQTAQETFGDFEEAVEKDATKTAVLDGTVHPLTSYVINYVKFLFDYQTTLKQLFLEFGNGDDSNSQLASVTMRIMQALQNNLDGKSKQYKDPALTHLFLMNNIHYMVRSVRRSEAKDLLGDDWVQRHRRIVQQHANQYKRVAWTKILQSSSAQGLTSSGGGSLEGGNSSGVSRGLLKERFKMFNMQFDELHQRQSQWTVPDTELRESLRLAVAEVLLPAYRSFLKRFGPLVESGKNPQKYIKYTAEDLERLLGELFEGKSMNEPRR

[1] = Stability of ES2 in water by 1H NMR; type: physicochemical; settings: 1H NMR over one week
Method: The ES2 molecule contains an N-acyl hydrazone group at its core, and could have the propensity for hydrolysis to 3-fluorobenzohydrazide and 4-hydroxy-3-iodo-5-methoxybenzaldehyde in aqueous solution (FIG. 10A). […] In addition, the activity of the two possible ES2 hydrolysis products in inducing PIN2 localization in late endosomal compartments was tested.

[2] = target: T2, EXO70A1 (amino acid residues 75-638) (Arabidopsis thaliana, UniProt Q9LZD3); assay: STD-NMR of ES2 / analog8 with purified EXO70A1; type: binding; settings: EXO70A1, non-linear fit, read-out: Kd (mean ± SE)
T2 sequence (Q9LZD3 75-638): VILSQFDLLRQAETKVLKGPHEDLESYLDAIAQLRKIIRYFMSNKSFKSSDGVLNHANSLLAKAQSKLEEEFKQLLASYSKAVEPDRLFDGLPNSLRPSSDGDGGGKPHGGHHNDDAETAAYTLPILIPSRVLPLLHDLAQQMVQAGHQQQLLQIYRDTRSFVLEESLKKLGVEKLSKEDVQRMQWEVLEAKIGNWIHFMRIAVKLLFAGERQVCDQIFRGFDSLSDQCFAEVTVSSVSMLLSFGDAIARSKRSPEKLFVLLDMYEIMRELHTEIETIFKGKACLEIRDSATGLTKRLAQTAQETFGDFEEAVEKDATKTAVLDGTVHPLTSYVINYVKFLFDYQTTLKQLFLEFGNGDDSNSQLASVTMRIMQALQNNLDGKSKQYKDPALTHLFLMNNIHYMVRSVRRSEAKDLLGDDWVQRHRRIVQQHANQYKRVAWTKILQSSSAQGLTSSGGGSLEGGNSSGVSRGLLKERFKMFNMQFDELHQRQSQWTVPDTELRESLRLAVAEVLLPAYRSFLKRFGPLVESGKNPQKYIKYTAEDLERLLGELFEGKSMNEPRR

SMILES: COc1cc(/C=N/NC(=O)c2ccc(N)cc2)ccc1O [Ana-680, 4-Amino-N′-[(E)-(4-hydroxy-3-methoxyphenyl)methylidene]benzohydrazide]
induction of PIN2 agglomerations / PIN2 localization (PIN2 localization): did not

SMILES: COc1cc(/C=N/NC(=O)c2ccc(N)c(F)c2)cc(I)c1O [Ana-688, 4-Amino-3-fluoro-N′-[(E)-(4-hydroxy-3-iodo-5-methoxyphenyl)methylidene]benzohydrazide]
induction of PIN2 agglomerations / PIN2 localization (PIN2 localization): induced PIN2 agglomerations

SMILES: COc1cc(/C=N/NC(=O)c2ccc(NC(=O)CCCC[C@@H]3SC[C@@H]4NC(=O)N[C@@H]43)cc2)ccc1O [Bio-680, N-(4-((E)-2-(4-hydroxy-3-methoxybenzylidene)hydrazinecarbonyl)phenyl)-5-((3aS,4S,6aR)-2-oxohexahydro-1H-thieno[3,4-d]imidazol-4-yl)pentanamide]
induction of PIN2 agglomerations / PIN2 localization (PIN2 localization): inactive; also recorded: did not

SMILES: COc1cc(/C=N/NC(=O)c2ccc(NC(=O)CCCC[C@@H]3SC[C@@H]4NC(=O)N[C@@H]43)c(F)c2)cc(I)c1O [Bio-688, N-(2-fluoro-4-((E)-2-(4-hydroxy-3-iodo-5-methoxybenzylidene)hydrazinecarbonyl)phenyl)-5-((3aS,4S,6aR)-2-oxohexahydro-1H-thieno[3,4-d]imidazol-4-yl)pentanamide]
induction of PIN2 agglomerations / PIN2 localization (PIN2 localization): active; also recorded: induced PIN2 agglomerations
pull down of EXO70A1 (western blot band intensity) (EXO70A1): more potent in pulling down EXO70A1

stability in water solution (hydrolysis) [1]: no hydrolysis products were observed
Kd [2]: 400 ± 170 µM
SMILES: COc1cc(/C=N/NC(=O)c2cccc(F)c2)cc(I)c1O [ES2]
maximum feret diameter of PIN2-localized compartments (PIN2 localization; 40 μM ES2, 2 hours, light): 2.9 μm
minimal feret diameter of PIN2-localized compartments (PIN2 localization; 40 μM ES2, 2 hours, light): 0.4 μm
feret diameter of PIN2-localized compartments (mean±SD) (PIN2 localization; 40 μM ES2, 2 hours, light, N=391): 1.18±0.47 μm
